Assay results from the supplement of paper PMC12420376.

What was measured:
KURAMOCHI = assay: drug sensitivity score (DSS2) on cancer cell count; higher = more sensitive; extreme values may be limits of the assay; conditions: 72 h
Summary of the method: (§1)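 Cancer cell counts came from 10× images (4 fields) of fixed cells immunostained for CK8/18 with Hoechst. The ovarian cancer cells had been grown alone or in 1:1 direct co-culture with lung or skin fibroblasts on 384-well plates pre-spotted acoustically with 528 approved and investigational compounds at 5 concentrations, then treated for 72 h. Breeze was used to derive a drug sensitivity score from logistic fits of the data.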

OVCAR8 = assay: as above; conditions: 72 h
Summary of the method: as §1

[1] = co-cultured fibroblast: BJHTERT
[2] = co-cultured fibroblast: none (monoculture)

| SMILES | drug sensitivity score (KURAMOCHI; [1]) | drug sensitivity score (KURAMOCHI; co-cultured fibroblast: WI38) | drug sensitivity score (KURAMOCHI; [2]) | drug sensitivity score (OVCAR8; [1]) | drug sensitivity score (OVCAR8; co-cultured fibroblast: WI38) | drug sensitivity score (OVCAR8; [2]) |
| --- | --- | --- | --- | --- | --- | --- |
| O[C@H]1CC[C@H](Nc2ncc3nc(Nc4c(F)cc(F)cc4F)n([C@H]4CCOC4)c3n2)CC1 [Tanzisertib] | 2 DSS | 0 DSS | 0.2 DSS | 1.4 DSS | 0 DSS | 1 DSS |
| C[C@@H](C(=O)O)c1ccc(-c2ccccc2)c(F)c1 [Tarenflurbil] | 0 DSS | 0 DSS | 0 DSS | 0.7 DSS | 0 DSS | 0 DSS |
| Cc1nc(-c2cn3c(n2)-c2ccc(-c4cnn(C(C)(C)C(N)=O)c4)cc2OCC3)n(C(C)C)n1 [Taselisib] | 9.2 DSS | 4.7 DSS | 10.7 DSS | 3.1 DSS | 0 DSS | 3.3 DSS |
| COc1cccc2c1c(O)c(C(=O)N(C)c1ccc(C(F)(F)F)cc1)c(=O)n2C [Tasquinimod] | 0 DSS | 0 DSS | 0 DSS | 0 DSS | 0 DSS | 0 DSS |
| CCN(c1cc(-c2ccc(CN3CCOCC3)cc2)cc(C(=O)NCc2c(C)cc(C)[nH]c2=O)c1C)C1CCOCC1 [Tazemetostat] | 0 DSS | 0 DSS | 0 DSS | 0 DSS | 0 DSS | 0 DSS |
| CNC(=O)c1cc(COc2nnc(Nc3ccc(Cl)cc3)c3ccoc23)ccn1 [Telatinib] | 0 DSS | 0.4 DSS | 16.6 DSS | 1.1 DSS | 0 DSS | 0 DSS |
| Cn1nnc2c(C(N)=O)ncn2c1=O [Temozolomide] | 0 DSS | 2.2 DSS | 9.1 DSS | 0 DSS | 0 DSS | 9.8 DSS |
| CO[C@H]1C[C@@H]2CC[C@@H](C)[C@@](O)(O2)C(=O)C(=O)N2CCCC[C@H]2C(=O)O[C@H]([C@H](C)C[C@@H]2CC[C@@H](OC(=O)C(C)(CO)CO)[C@H](OC)C2)CC(=O)[C@H](C)/C=C(\C)[C@@H](O)[C@@H](OC)C(=O)[C@H](C)C[C@H](C)/C=C/C=C/C=C/1C [Temsirolimus] | 16.8 DSS | 14.2 DSS | 8.6 DSS | 8.8 DSS | 0 DSS | 11 DSS |
| COc1cc([C@@H]2c3cc4c(cc3[C@@H](O[C@@H]3O[C@@H]5CO[C@@H](c6cccs6)O[C@H]5[C@H](O)[C@H]3O)[C@H]3COC(=O)[C@H]23)OCO4)cc(OC)c1O [Teniposide] | 0 DSS | 0 DSS | 0 DSS | 0 DSS | 0 DSS | 0.4 DSS |
| CN1CCC(COc2cnc(-c3cccc(Cn4nc(-c5cccc(C#N)c5)ccc4=O)c3)nc2)CC1 [Tepotinib] | 0.2 DSS | 0 DSS | 3 DSS | 0 DSS | 0 DSS | 1.8 DSS |
| COc1cc2c(Nc3ccc(Cl)c(Cl)c3F)ncnc2cc1OC[C@@H]1C[C@@H]2CN(C)C[C@@H]2C1 [Tesevatinib] | 5 DSS | 1.4 DSS | 11.7 DSS | 3.3 DSS | 0.4 DSS | 3.4 DSS |
| O=C1CCC(N2C(=O)c3ccccc3C2=O)C(=O)N1 (stereo not drawn) [Thalidomide] | 0 DSS | 0 DSS | 0 DSS | 0 DSS | 0 DSS | 0 DSS |
| Nc1nc2[nH]cnc2c(=S)[nH]1 [Thioguanine] | 5.3 DSS | 5.7 DSS | 7.7 DSS | 4.8 DSS | 7.3 DSS | 13.6 DSS |
